According to patent publication US9949976B2, “Kinase inhibitor and use thereof” (Sihuan Pharmaceutical Holdings Group Ltd., priority 2013, dated 2018):

Test system: U87MG human glioblastoma cell
Assay: BrdU cell proliferation assay (Cell Signaling kit)
Type: cell-based
Settings: U-87 MG, 72 h, read-out: In vitro cell-inhibiting activity IC50 U87MG
Experimental: Experimental method: cell proliferation assay was carried out by BrdU method (BrdU cell proliferation assay kit, Cell Signaling Technology Company).
Preparation of gradient dilution solutions of test compound: the stock solution containing 10 mM test compound was subjected to 4-fold stepwise dilution with DMSO to prepare solutions containing 2.5 mM, 625 μM, 156 μM, 39 μM, 9.8 μM, and 2.5 μM test compound, respectively. 2 μL DMSO-diluted compound was added to 198 μL culture medium containing 10% FBS to prepare […] test compound, wherein the maximum concentration of the test compound was 100 μM, the concentration of DMSO was 1%, and there were 7 concentration gradients.
U87MG medium: MEM+10% FBS
(1) Cells grown to 80% confluence (in exponential growth phase) were digested with pancreatin, and centrifuged to collect the cells. MDA-MB-435S and U87MG cells were re-suspended in FBS-free culture medium, counted, and seeded to a 96-well plate; MDA-MB-435S cells were seeded at 3000 cells/well/81 μL; U87MG cells were seeded at 4000 cells/well/81 MCF-7 cells were resuspended in culture medium containing 1% FBS, and counted and seeded to a 96-well plate, at 4000 cell/well/82 μL. The plates were placed in a cell incubator at 37° C. […]
(9) To each well, stop solution (100 μL) was added, and OD value at 450 nm was measured by ELISA instrument […]

**Q.** Which IC50 does the source give for CCN1CCN(Cc2ccc(Nc3ncc(F)c(-c4cc(F)c5nc(C)n(C(C)C)c5c4)n3)nc2)CC1 [LY2835219, reference compound] here?
**A.** Its IC50 is 40 nM.
